Measurements taken from publication PMC11233932, “Identification of an alternative ligand‐binding pocket in peroxisome proliferator‐activated receptor gamma and its correlated selective agonist for promoting beige adipocyte differentiation” (MedComm, 2024).

Target: T1, peroxisome proliferator-activated receptor gamma (PPARγ) (Mus musculus, UniProt P37238)
T1 construct: gene Pparg; LBD, GFP fusion overexpressed in 293T cells
T1 sequence (P37238 238-505 limits assumed): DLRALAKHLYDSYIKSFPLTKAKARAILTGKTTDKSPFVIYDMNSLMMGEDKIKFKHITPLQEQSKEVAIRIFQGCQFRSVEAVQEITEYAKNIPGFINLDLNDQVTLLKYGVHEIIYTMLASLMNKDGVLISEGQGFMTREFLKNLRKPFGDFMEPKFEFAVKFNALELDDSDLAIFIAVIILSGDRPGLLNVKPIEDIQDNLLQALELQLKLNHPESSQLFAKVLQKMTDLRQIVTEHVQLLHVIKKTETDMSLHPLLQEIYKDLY
Assay: microscale thermophoresis with GFP-PPARγ LBD in cell lysate; supported by luciferase reporter (partial agonist)
Type: binding

C[C@H]1O[C@@H](O[C@H]2CC[C@@]3(C)[C@@H](CC[C@]4(C)[C@@H]3C=C[C@]35OC[C@@]6(CCC(C)(C)C[C@H]63)[C@@H](O)C[C@]54C)[C@]2(C)CO)[C@H](O)[C@@H](O[C@@H]2O[C@H](CO)[C@@H](O)[C@H](O)[C@H]2O)[C@H]1O [NJT-2, saikosaponin A]
Kd: 5.07 µM
